Experimental findings from patent publication US20260078120A1, “SUBSTITUTED PYRIDOPYRIMIDINONES” (MIRATI THERAPEUTICS, INC., priority 2022, published 2026) are described below.

pIC50: −log10 of the molar value. Some results are limits rather than exact numbers.

Common to all, as to assay type: cell-based
Test [1] has as its system T47D (PI3Kα H1047R mutant) cells. Kind of test: CellTiter-Glo 2.0 luminescent cell viability assay, 72 hours, T47D cells. The note with it: Homo sapiens, T47D, 72 h; for pIC50: T47D (PI3Kα H1047R mutant) cells, CellTiter-Glo, approximately 72 hours, read-out: T47D (H1047R mutant) Viability IC50. An outline of the steps: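 Cells seeded at 1000 per well overnight were dosed with a 10-concentration, 1:4 series starting at 10 µM and incubated ~72 h at 37° C. Viability was read by CellTiter-Glo 2.0 luminescence after 30 min at room temperature. IC50 came from four-parameter fits of percent vehicle control.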
Background: In ATP-based viability assays light output follows the ATP content of the culture.

Test [2] has the same test system. Kind of test: Inhibition of pAKT formation, alphaLISA SureFire Ultra AKT 1/2/3 (pS473), T47D cells. The following applies: Homo sapiens, T47D; for pIC50: T47D (PI3Kα H1047R mutant) cells, inhibition of pAKT (pS473) formation, approximately one hour or 24 hours treatment, read-out: T47D pAKT (H1047R mutant) IC50. An outline of the steps:
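T47D cells (12,000/well) in HBSS were dosed with compound at 10 concentrations (10.4 μM top, 1:4 dilutions) for about 1 h or 24 h at 37 °C, then lysed. pS473 AKT was read by alphaLISA. Signals were normalized to alpelisib and DMSO controls, and IC50 came from a four-parameter fit.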

Test [3] relates to SKBR3 (PI3Kα wild type) cells. Put plainly: Inhibition of pAKT formation, alphaLISA SureFire Ultra AKT 1/2/3 (pS473), SKBR3 cells. The following applies: Homo sapiens, SK-BR-3; Inhibition of pAKT in SKBR3 (PI3Kα wild type) cells; read-out: SKBR3 (WT) pAKT IC50 (nM) (H1047R mutant) IC50. How it is done: (§1) The ability of a compound of Formula (I) to inhibit the formation of pAKT was measured using alphaLISA Surefire Ultra AKT 1/2/3 (pS473) Assay Kit (#ALSU-PAKT-B50K) was obtained from Perkin Elmer (Waltham, MA).
(§2) To prepare assay plates for pAKT alphaLISA assays, cells were trypsinized, resuspended in fresh media, and viable cells were counted utilizing trypan blue exclusion. Prior to seeding, cells were washed with PBS and resuspended in HBSS (Gibco, #14025092). T47D (12,000/w), SKBR3(12,000/w), or MKN1(24,000/w) cells were seeded at 12 μl per well in a solid white flat bottom 384 cell culture plate (Perkin Elmer #6007680).
(§3) Immediately after seeding, cells were dosed using an Echo Liquid Handler (Beckman Coulter) with compounds at a […] starting concentration and serially diluted (1:4) for a total of 10 concentrations. […] Cells were incubated with the compounds (solubilized in DMSO) for approximately one hour or 24 hours at 37° C. After one hour (or 24 hours) of treatment, cells were lysed with 3 μl of the 5× lysis buffer (provided and incubated at room temperature for 15 min on a microtiter plate shaker). Once cells were sufficiently lysed, 7.5 μl of the acceptor bead mix (made using the manufacturers recommended dilutions) was added to each well and left on the microtiter plate shaker for 1 min prior to incubating plates at room temperature for one hour, in the absence of light. After one hour of incubation with the acceptor bead mix, 7.5 μl of the donor bead mix (made using the manufacturers recommended dilutions) was added to each well and left on the microtiter plate shaker for 1 min prior to incubating plates at room temperature overnight in the absence of light. Plates were then imaged the following day using a CLARIOstar microplate reader (BMG Labtech, Germany).
(§4) Percent of control values were calculated by subtracting the average signal from the positive control (alpelisib) treated wells from all treated wells (including DMSO control wells) and then divided by the average signal from the vehicle DMSO treated control wells. Percent of vehicle control values were plotted as log (inhibitor) vs. response-Variable slope (four parameters) for curve fitting and IC50 values were determined using XLfit.
(§5) Key: N.D. =not determined

Test [4] relates to SKBR3 (PI3Kα wild type) cells. Kind of test: CellTiter-Glo 2.0 luminescent cell viability assay, 72 hours, SKBR3 cells. The following applies: Homo sapiens, SK-BR-3, 72 h; for pIC50: SKBR3 (PI3Kα wild type) cells, CellTiter-Glo, approximately 72 hours, read-out: SKBR3 (WT) Viability IC50. The gist of the method:
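Viability measured via CTG luminescence following roughly 72 hours of compound exposure at 37° C. Dosing used a 10 um starting concentration diluted 1:4 over 10 points; percent-of-vehicle data fitted with a variable-slope four-parameter model for IC50.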

In test [5] the test system is MKN1 (PI3Kα E545K mutant) cells. Put plainly: Inhibition of pAKT formation, alphaLISA SureFire Ultra AKT 1/2/3 (pS473), MKN1 cells. The note with it: Homo sapiens; for pIC50: MKN-1, MKN1 (PI3Kα E545K mutant) cells, inhibition of pAKT (pS473) formation, approximately one hour or 24 hours treatment, read-out: MKN1 (E545K) pAKT IC50. As to the method:
as §1, §2, §3, §4, §5

The test system is the same in test [6]. Kind of test: CellTiter-Glo 2.0 luminescent cell viability assay, 72 hours, MKN1 cells. The note with it: Homo sapiens; for pIC50: MKN-1, MKN1 (PI3Kα E545K mutant) cells, CellTiter-Glo, approximately 72 hours, read-out: MKN1 (E545K) Viability IC50. As to the method: This Example illustrates that exemplary compounds of the present invention decrease the viability of cells.
The ability of a compound of Formula (I) to decrease the viability of cells was measured using CellTiter-Glo 2.0 (CTG) Luminescent Cell Viability Assay (#G9241) obtained from Promega (Madison, WI).
To prepare assay plates for viability assays, cells were trypsinized, resuspended in fresh media, and viable cells were counted utilizing trypan blue exclusion. T47D, SKBR3, or MKN1 cells were seeded at 1000 cells in 30 μl per well in a solid white flat bottom 384 cell culture plate (Perkin Elmer #6007680) and incubated at 37° C. overnight.
Assay day 1, cells were dosed using an Echo Liquid Handler (Beckman Coulter) with compounds at a 10 um starting concentration and serially diluted (1:4) for a total of 10 concentrations. Cells were incubated for approximately 72 hours with the compounds (solubilized in DMSO) at 37° C. After 72 hours of treatment, cell plates were equilibrated to room temperature before adding 15 μl of CTG to each well, plates were then covered in aluminum foil to protect from light, incubated at room temperature for 30 minutes on a microtiter plate shaker, and luminescence readings were collected using a CLARIOstar microplate reader (BMG Labtech, Germany). Percent of vehicle control values were plotted as log (inhibitor) vs. response-Variable slope (four parameters) for curve fitting and IC50 values were determined using XLfit.

In general, pIC50 refers to the IC50 on a negative log10 scale, so that one unit is a factor of ten. By IC50 is commonly meant the midpoint of a concentration-inhibition curve. With `Cc1cc(C(C)N(C)C(=O)CCl)c2nc(N3CCCCC3)cc(=O)n2c1` (stereo not drawn) [Example 4-4, 2-chloro-N-methyl-N-(1-(7-methyl-4-oxo-2-(piperidin-1-yl)-4H-pyrido[1,2-a]pyrimidin-9-yl)ethyl)acetamide], the pIC50 in test [1] was < 5.00; in test [2], < 5.00; in test [4], 5.41; in test [5] it was < 5.00; in test [6], 5.37. Also, in test [3], the concentration for half-maximal inhibition (IC50) is > 10000 nM.
Turning to `Cc1cc(C(C)Nc2ccccc2C(=O)O)c2nc(N3CCCCC3)c(C#N)c(=O)n2c1` (stereo not drawn) [Example 8-1, 2-((1-(3-cyano-7-methyl-4-oxo-2-(piperidin-1-yl)-4H-pyrido[1,2-a]pyrimidin-9-yl)ethyl)amino)benzoic acid], the pIC50 is 6.78 in test [1]; 7.27 in test [2]; < 5.00 in test [4]; 5.26 in test [5]; 5.01 in test [6]. Further, in test [3], the half-inhibitory concentration (IC50) amounted to 932 nM.
In the case of `Cc1cc(C(C)Nc2ccccc2C(=O)O)c2nc(C3CCOCC3)cc(=O)n2c1` (stereo not drawn) [Example 9-1, 2-((1-(7-methyl-4-oxo-2-(tetrahydro-2H-pyran-4-yl)-4H-pyrido[1,2-a]pyrimidin-9-yl)ethyl)amino)benzoic acid], the pIC50 is 5.59 in test [1]; 7.67 in test [2]; < 5.00 in test [4]; < 5.00 in test [5]; < 5.00 in test [6]. The IC50 in test [3] was > 10000 nM.
Regarding `COC(=O)c1ccccc1NC(C)c1cc(C)cn2c(=O)cc(N3CCCCC3)nc12` (stereo not drawn) [Example 3-12, methyl 2-((1-(7-methyl-4-oxo-2-(piperidin-1-yl)-4H-pyrido[1,2-a]pyrimidin-9-yl)ethyl)amino)benzoate], the pIC50 in test [1] was 5.24; in test [2], 5.71; in test [4] it was < 5.00; in test [5], < 5.00; in test [6], < 5.00. For the same compound, the IC50 in test [3] is 44.3 nM.
As for `C=CC(=O)N(C)C(C)c1cc(C)cn2c(=O)cc(N3CCCCC3)nc12` (stereo not drawn) [Example 4-2, N-methyl-N-(1-(7-methyl-4-oxo-2-(piperidin-1-yl)-4H-pyrido[1,2-a]pyrimidin-9-yl)ethyl)acrylamide], the pIC50 in test [1], in test [2], in test [4], in test [5] and in test [6] was < 5.00 in each case. The IC50 in test [3] is > 10000 nM.
As to `C=CC(=O)NC(C)c1cc(C)cn2c(=O)cc(N3CCCCC3)nc12` (stereo not drawn) [Example 4-1, N-(1-(7-methyl-4-oxo-2-(piperidin-1-yl)-4H-pyrido[1,2-a]pyrimidin-9-yl)ethyl)acrylamide], the negative logarithm of the IC50 (pIC50) in test [1], in test [2], in test [4], in test [5] and in test [6] was < 5.00 throughout. Moreover, in test [3], the concentration for half-maximal inhibition (IC50) is > 10000 nM.
With `COc1ccc(NC(C)c2cc(C)cn3c(=O)cc(N4CCCCC4)nc23)c(C(=O)O)c1` (stereo not drawn) [Example 3-5, 5-methoxy-2-((1-(7-methyl-4-oxo-2-(piperidin-1-yl)-4H-pyrido[1,2-a]pyrimidin-9-yl)ethyl)amino)benzoic acid], the pIC50 was < 5.00 in test [1]; 5.74 in test [2]; < 5.00 in test [4]; < 5.00 in test [5]; < 5.00 in test [6]. Besides, the IC50 in test [3] was > 10000 nM.
On to `Cc1cc(C(C)Nc2ccc(Cl)nc2C(=O)O)c2nc(N3CCCCC3)cc(=O)n2c1` (stereo not drawn) [Example 3-19, 6-chloro-3-((1-(7-methyl-4-oxo-2-(piperidin-1-yl)-4H-pyrido[1,2-a]pyrimidin-9-yl)ethyl)amino)picolinic acid], for which the pIC50 in test [1] is 6.43; in test [2] it was 7.42; in test [4] it was < 5.00; in test [5], 5.92; in test [6] it was < 5.00. Further, the IC50 in test [3] is 2800 nM.
Regarding `Cc1cc(C(C)Nc2ccccc2C(F)(F)CO)c2nc(N3CCCCC3)cc(=O)n2c1` (stereo not drawn) [Example 3-20, 9-(1-((2-(1,1-difluoro-2-hydroxyethyl)phenyl)amino)ethyl)-7-methyl-2-(piperidin-1-yl)-4H-pyrido[1,2-a]pyrimidin-4-one], the negative-log IC50 (pIC50) was < 5.00 in test [1]; 5.95 in test [2]; < 5.00 in test [4]; < 5.00 in test [5]; < 5.00 in test [6]. The concentration for half-maximal inhibition (IC50) in test [3] was > 10000 nM.
Consider `Cc1cc(C(C)Nc2ccccc2C(=O)O)c2nc(-c3ccccc3)cc(=O)n2c1` (stereo not drawn) [Example 7-1, 2-((1-(7-methyl-4-oxo-2-phenyl-4H-pyrido[1,2-a]pyrimidin-9-yl)ethyl)amino)benzoic acid], for which the IC50 in test [1] (read-out: T47D (H1047R mutant) Viability IC50 (nM)) is 3140 nM; in test [2] (read-out: T47D pAKT (H1047R mutant) IC50 (nM)), 13.3 nM; in test [3], 6650 nM; in test [4] (read-out: SKBR3 (WT) Viability IC50 (nM)) it was > 10000 nM; in test [5] (MKN-1, read-out: MKN1 (E545K) pAKT IC50 (nM)), 6420 nM; in test [6] (MKN-1, 72 h, read-out: MKN1 (E545K) Viability IC50 (nM)), > 10000 nM.
`Cc1cc(C(C)Nc2ccccc2O)c2nc(N3CCCCC3)cc(=O)n2c1` (stereo not drawn) [Example 3-16, 9-(1-((2-hydroxyphenyl)amino)ethyl)-7-methyl-2-(piperidin-1-yl)-4H-pyrido[1,2-a]pyrimidin-4-one]: the negative logarithm of the IC50 (pIC50) in test [1] is < 5.00; in test [2], < 5.00; in test [4], 5.03; in test [5], < 5.00; in test [6], < 5.00. Besides, the IC50 in test [3] was > 10000 nM.
For `Cc1cc(C(C)Nc2cc(O)ccc2C(=O)O)c2nc(N3CCCCC3)cc(=O)n2c1` (stereo not drawn) [Example 3-8, 4-hydroxy-2-((1-(7-methyl-4-oxo-2-(piperidin-1-yl)-4H-pyrido[1,2-a]pyrimidin-9-yl)ethyl)amino)benzoic acid], the pIC50 was < 5.00 in test [1]; 5.52 in test [2]; < 5.00 in test [4]; < 5.00 in test [5]; < 5.00 in test [6]. The half-inhibitory concentration (IC50) in test [3] is > 10000 nM.
